This data set can be described thus: Henry solubility constant Hcp at 298.15 K (mol/(m3 Pa)). The following applies: reference: Tse et al. (1992).

As for `ClCCl` [dichloromethane], the “Henry solubility constant Hcp” value is 0.0039.
For `C=C(Cl)Cl` [1,1-dichloroethene], the “Henry solubility constant Hcp” value stood at 0.00035.
With `ClC(Cl)C(Cl)Cl` [1,1,2,2-tetrachloroethane] the figure was 0.026; with `BrC(Br)Br` [tribromomethane], 0.019.
With `ClCC(Cl)Cl` [1,1,2-trichloroethane] the figure was 0.011; with `ClC(Br)Br` [dibromochloromethane], 0.0093.
The same measure for `ClCC(Cl)(Cl)Cl` [1,1,1,2-tetrachloroethane]: 0.0045; for `CC(Cl)(Cl)Cl` [1,1,1-trichloroethane]: 0.00063; for `ClC(Cl)Br` [bromodichloromethane]: 0.0048.
With `CC(Cl)CCl` (stereo not drawn) [1,2-dichloropropane], the “Henry solubility constant Hcp” value came to 0.0038.
The same measure for `ClC(Cl)(Cl)Cl` [tetrachloromethane]: 0.00038; for `ClC=C(Cl)Cl` [trichloroethene]: 0.0011; for `BrCBr` [dibromomethane]: 0.011.

Values taken from Sander's compilation of Henry's law constants (doi:10.1021/es00034a021).
